A melting point compilation (Tetko et al.; mined from patent text by program, amines drawn as free bases though some values may be those of a salt)

`CCCCCCCCCCOc1ccc(C(=O)O[C@@H]2CC[C@H](NC(=O)[C@H](OC)[C@H](O)[C@@H](O)[C@H](O)/C=C/C(C)(C)C)C(=O)NC2)cc1` gave a melting point of 70 to 74 °C. `COc1cc2c(cc1[N+](=O)[O-])N(CC(=O)N(C)C)C(=O)CN(CC(=O)N(C)C)C2` showed a melting point of 98 °C. For `O=C(O)C1CC1(C(=O)O)c1ccc([N+](=O)[O-])cc1` (stereo not given), the melting point was 138 to 144 °C. Molecule `COc1cccc(OC)c1C#CC(F)(F)F` has a melting point of 110 to 111 °C. In the case of `O=C(NC(Cc1c[nH]cn1)C(=O)NC(Cc1ccc(OCc2ccccc2)cc1)C(=O)NCCOCc1ccccc1)OCc1ccccc1` (stereo not given), the melting point is reported as 161 to 165 °C. `C=CC(C)c1cc(C)c2c(c1O)C(N(C)C(C)=O)C1CCCCC21` (stereo not given) gave a melting point of 143 to 145 °C. `Cc1cccc2ncc(C(=O)NCC(C)(C)C)c(=O)n12` gave a melting point of 191 to 194 °C. In the case of `COc1ccc([C@@H]2Sc3cc(Cl)ccc3N(CCCCl)C(=O)[C@@H]2O)cc1` (relative stereo), the melting point is reported as 103 to 106 °C. Work on `O=c1cc(N2CCOCC2)oc2ccc(Br)cc12` yielded a melting point of 147 to 149 °C. In the case of `N#CCc1ccc(OCc2ccccc2)cc1OCc1ccccc1`, the melting point is reported as 99 to 100 °C. With `CC(=O)N(C)[C@H]1CCN(C(=O)c2ccc(-c3[nH]nc4c3C(=O)c3c(NC(=O)NN5CCOCC5)cccc3-4)s2)C1` the melting point was > 300 °C. Molecule `CCCCC[C@H]1CC[C@H](c2ccc(CC(=O)OCc3ccc(C#N)cc3)cc2)CC1` has a melting point of 85 °C. For `NC(=O)Cn1c(-c2ccc(Br)o2)nc2cccnc21`, the melting point was > 250 °C. `Oc1ccc2cc(-c3cnc(-c4cn(Cc5ccccc5)c5ccccc45)o3)ccc2c1` gave a melting point of 242 to 244 °C. Molecule `O=C(c1ccccc1Cl)c1ccccc1Nc1ncccc1[N+](=O)[O-]` has a melting point of 119 °C. `CCc1cn(C2CC(O)C(CO)O2)c(=O)nc1NC(=O)c1ccccc1` (stereo not given) showed a melting point of 172 to 174 °C. In the case of `COc1ccc(N=Nc2ccc(O)c(C(N)=O)c2)cc1`, the melting point is reported as 231 to 233 °C. In the case of `Cc1ccc(S(=O)(=O)N2CCCC2c2ccccc2F)cc1` (racemic), the melting point is reported as 143 °C. For `N#Cc1ccc(OCC(F)(F)F)c(F)c1`, the melting point was 62 to 67 °C. For `CN(C)C[C@@H]1C[C@H]1c1c[nH]c2ccc(C#N)cc12` (relative stereo), the melting point was 120 to 121 °C. `CC(C)(C)OC(=O)N1C2CCC1CN(Cc1ccccc1)C2` gave a melting point of 58 to 60 °C. With `c1c2c(nc3c1CCCCC3)CCCCC2` the melting point was 179 °C. Work on `NS(=O)(=O)c1cc2cnccc2o1` yielded a melting point of 216 to 218 °C. `Cc1ccnc(NC#N)n1` showed a melting point of 203 °C. In the case of `Nc1cc(C(F)(F)F)on1`, the melting point is reported as 44 to 45 °C. `CC(C)(CNC(=O)c1ncc[nH]1)c1ccc(C(=O)Nc2cn3cc(C(F)(F)F)ccc3n2)cc1` showed a melting point of 292 to 293 °C. `C=CCN1Cc2cnc(C)n2-c2ccc(Cl)cc2C1c1ccccc1F` (stereo not given) gave a melting point of 140 to 145 °C. For `CC(C)c1ccc(-n2cc(C#N)cc2N)c(Br)c1`, the melting point was 106 °C. With `COc1ccc(C(C)=NOCc2cccc(F)c2)cc1F` the melting point was 67 °C. With `CCOC(=O)c1csc(Nc2nc(C(C)(C)C)c(O)c(C(C)(C)C)n2)n1` the melting point was 204 to 206 °C. For `Cc1cc(C)c(S(=O)(=O)N(C)c2ccccc2CSc2nccn2-c2ccccn2)c(C)c1`, the melting point was 131 to 133 °C. `Nc1c(-c2ccc(Oc3ccccc3)cc2)nc2ccccc2c1C(=O)O` gave a melting point of 218 to 220 °C. Work on `C[C@H](Cc1ccc(O)c(O)c1)NC(=O)OC(C)(C)C` yielded a melting point of 116 to 118 °C. For `CCCCOc1cc(CCC(=O)O)n(Cc2ccc(Cl)cc2Cl)n1`, the melting point was 123 to 124 °C. `COc1cc(COc2nn(-c3ccccc3)cc2/C=C/P(=O)(OC)OC)ccc1OCc1nc(-c2ccco2)oc1C` showed a melting point of 107 to 108 °C. Molecule `O=C(O)Cc1ccc(Oc2ccc(CC3SC(=O)NC3=O)cc2)cc1` (stereo not given) has a melting point of 166 °C. For `N#CSc1ccc(C=O)cc1`, the melting point was 82 to 83 °C. `COc1ccc(N2CCN(Cc3n[nH]c4c3CCc3ccccc3-4)CC2)cc1` showed a melting point of 207 to 208 °C. With `N#Cc1c(C(F)(F)C(F)(F)F)nn(-c2c(Cl)cc(C(F)(F)F)cc2Cl)c1N` the melting point was 160 to 162 °C. With `Nc1cc(C(=O)c2cccc(C(=O)c3ccc(Cl)c(N)c3)c2)ccc1Cl` the melting point was 209 °C. With `O=C(O)C(Oc1ccc(F)cc1)c1ccc(Oc2ccc(Cl)cc2)cc1` (stereo not given) the melting point was 106 to 111 °C. `O=C1CCCN1[C@@H]1c2cc(C(F)(F)C(F)(F)C(F)(F)F)ccc2OC(CF)(CF)[C@H]1O` (relative stereo) gave a melting point of 174 to 175 °C. Molecule `CC1CCN(C(=O)c2ccc3nonc3c2)CC1` has a melting point of 86 to 87 °C. `CC(NC(=O)Cc1cc(F)cc(F)c1)C(=O)C1(N)N=C(N2CCCCC2)c2ccccc2N(C)C1=O` (stereo not given) gave a melting point of 154 to 160 °C. Molecule `CC(C)(C)C(C)(O)C(Cn1cncn1)Oc1ccc(Cl)cc1` (stereo not given) has a melting point of 150 °C. For `O=C1N(c2c(Cl)cccc2Cl)Cc2cnc(Nc3ccccc3)nc2N1c1cccc(CCO)c1`, the melting point was > 250 °C. Work on `CCCN(CCC)C1Cc2cccc3nc(N)n(c23)C1` (stereo not given) yielded a melting point of 160 to 170 °C. With `CCN1C(=O)C(NC(=O)C(F)(F)F)CCc2c1ccc(Nc1ncc(Cl)c(N[C@H]3[C@@H](C(N)=O)[C@@H]4C=C[C@H]3C4)n1)c2OC` (stereo not given in full) the melting point was 167 to 176 °C. In the case of `Nc1ccc2c(c1)-c1ccccc1S2=O` (stereo not given), the melting point is reported as 169 to 172 °C. With `CCCCCC(=O)N1C(CCCCC)NC(=O)CC1C(=O)O` (stereo not given) the melting point was 55 to 56 °C. `O=c1c2ccccc2ncn1C1CCN(CCCc2ccccc2)CC1` gave a melting point of 107 to 108 °C. `CC(CC#N)(C(=O)NCC#N)c1ccc(C(=O)Nc2cn3cc(Cl)ccc3n2)cc1` (stereo not given) showed a melting point of 268 to 269 °C. Work on `O=C(C=Cc1ccc2ccccc2c1)NCCCCCC(=O)NO` yielded a melting point of 161 to 163 °C. `COC(=O)C(=O)Nc1cccc2c1C(=O)N(C1CCC(=O)NC1=O)C2=O` (stereo not given) gave a melting point of 247 to 249 °C. `COc1ccc(C2CN(c3cc(C)c4c(c3C)CC(C)(C)O4)CCO2)cc1` (stereo not given) gave a melting point of 107 to 108 °C. Molecule `Cc1oc(C=Cc2ccccc2Cl)nc1CC(=O)O` has a melting point of 148 to 149 °C. In the case of `CC(C)NCc1ccc(Cn2ccc(OCc3ccc(F)cc3F)c(Cl)c2=O)cc1`, the melting point is reported as 146 to 151 °C. Molecule `CCOC(=O)c1ccc(CCNS(=O)(=O)C=Cc2ccccc2)cc1` has a melting point of 59 to 61 °C. `CCOC(=O)Nc1cc2c(cn1)[nH]c1ccccc12` gave a melting point of 222 to 224 °C. With `CCn1cc(CN(C(=O)C2CCCc3ccccc32)c2ccc(C(C)C)cc2)cn1` (stereo not given) the melting point was 75 to 76 °C. In the case of `CCOC(=O)C1=C(N)NC2=C(C(=O)CCC2)C1c1cccc(Br)c1` (stereo not given), the melting point is reported as 255 °C. Work on `COc1cc(N)c([N+](=O)[O-])cc1C(=O)O` yielded a melting point of 254 °C. `O=C(Nc1cncc(Cl)n1)C1=C(O)c2ccccc2S(=O)(=O)N1` gave a melting point of 234 to 235 °C. With `Cc1cc(C(=O)O)cc(C)c1OCCNC(=O)C1Cc2ccccc2N1S(=O)(=O)c1ccc(-c2ccc(F)cc2)cc1` (stereo not given) the melting point was 124 to 128 °C. With `O=C1CSC(c2cccnc2)N1` (stereo not given) the melting point was 135 to 137 °C. Molecule `CC1(C)CC(=O)C2C3CCCCC3C2(C)C1` (stereo not given) has a melting point of 76.6 to 77.4 °C. Work on `Clc1ccc(-c2cnccn2)c(Cl)c1` yielded a melting point of 131 to 132 °C. `O=C(Nc1ccc(CCc2ccc(O)c(O)c2)cc1)C(=O)C1=C(O)c2ccccc2SC1` showed a melting point of 166 to 167 °C. With `COc1nc2c(N)nc3ccccc3c2n1Cc1ccccc1` the melting point was 240 to 242 °C. Molecule `Cc1cc2c(=O)n(CCN3CCC(Nc4nc5ccccc5n4Cc4ccc(F)cc4)CC3)c(=O)[nH]c2s1` has a melting point of 188 °C.
